Results published in patent US5106407A, “Iodones and methods for antimicrobial use” (priority 1989, dated 1992).
Values after ≈ are worked out from the molar mass of the structure shown.

Key:
Assay in all cases: minimum inhibitory concentration (MIC), agar dilution
Format in all cases: cell-based
[1] = system: Klebsiella pneumoniae; conditions: Klebsiella pneumoniae, ATCC8308; ATCC 8308; nutrient agar pH 6.8; read-out: MIC
Method: (§1) The minimum inhibitory concentration (MIC) for the compound of Example 19, i.e., (2-nitrophenyl)-iodonium 2,2-dimethyl-4,6-dioxo-1,3-dioxan-5-ylide was determined for 9 bacteria (using nutrient agar) and 5 yeast and fungi (using malt yeast agar). A one percent solution of this test compound (i.e., the compound of Example 19) was prepared in a mixture of acetone-water. Nutrient agar was prepared at pH 6.8 using deionized water according to standard Difco procedures. Malt yeast agar was prepared by adding 3 g Bacto yeast extract and 42 g Bacto Malt agar per liter of deionized water. The agar (nutrient agar when testing with bacteria and malt yeast agar when testing with yeast and fungi) was dispensed in 30 mL aliquots into 25×200 millimeter (mm) test tubes, capped and autoclaved for 15 min at 115° C. The test tubes containing the agar were cooled in a water bath until the temperature of the agar was 48° C. and then an appropriate amount of the one percent solution of the test compound was added (except in the controls where no test compound was added with the acetone-water) to the respective test tubes so that final concentrations of 500, 250, 100, 50, 25, 10, 5, 2.5, 1.0 and 0 parts per million (ppm) of the test compound in the agar were obtained. The agar solutions were each mixed and poured into individual petri plates so that each petri plate contained agar having a known concentration of test compound dispersed therein. After drying for 24 hr, the petri plates were inoculated with bacteria when the petri plates contained nutrient broth agar or with fungi and yeast when the petri plates contained malt yeast agar.
(§2) The inoculation with bacteria was accomplished using the following procedure. Twenty-four hr cultures of each of the bacteria were prepared by incubating the respective bacteria in tubes containing nutrient broth for 24 hr at 30° C. in a shaker. Dilutions of each of the 24 hr cultures were made so that 9 separate suspensions (one for each of the 9 test bacteria) were made, each containing about 10^8 colony forming units (CFU) per mL of suspension of a particular bacteria. Aliquots of 0.3 mL of each of the above suspensions were used to fill individual wells of a Steer's Replicator. For each microbial suspension, 0.3 mL was used to fill 3 wells (i.e., 3 wells of 0.3 mL each) so that for the 9 different bacteria 27 wells were filled. The Steer's Replicator was then used to inoculate the petri plates.
(§3) The petri plates were incubated at 30° C. for 48 hr and then read to determine if the test compound (i.e., the compound of Example 19) which was incorporated into the agar prevented growth of the respective bacteria. The minimum inhibitory concentration (MIC) for each bacteria was defined as the lowest concentration of the test compound which prevented growth of that bacteria.
(§4) In a similar procedure, the MIC (in ppm) of the compound of Example 11 (i.e., (2-nitrophenyl)-iodonium 2,6-dioxocyclohexylide) for various organisms was determined at an acid pH (about 6.8) and at an alkaline pH (about 8.2).

[2] = system: Pseudomonas aeruginosa PRD-10; conditions: Pseudomonas aeruginosa, ATCC15442; ATCC 15442; nutrient agar pH 6.8; read-out: MIC
Method: as §1, §2, §3, §4

[3] = system: Proteus vulgaris; conditions: Proteus vulgaris, ATCC881; ATCC 881; nutrient agar pH 6.8; read-out: MIC
Method: as §1, §2, §3, §4

[4] = system: Staphylococcus aureus; conditions: Staphylococcus aureus, ATCC6538; ATCC 6538; nutrient agar pH 6.8; read-out: MIC
Method: as §1, §2, §3, §4

[5] = system: Salmonella choleraesuis; conditions: Salmonella enterica, ATCC 10708 / CHOLERAESUIS, nutrient agar pH 6.8, read-out: MIC
Method: as §1, §2, §3, §4

[6] = system: Pseudomonas aeruginosa; conditions: Pseudomonas aeruginosa, ATCC10145; ATCC 10145; nutrient agar pH 6.8; read-out: MIC
Method: as §1, §2, §3, §4

[7] = system: Escherichia coli; conditions: Escherichia coli, ATCC11229; ATCC 11229; nutrient agar pH 6.8; read-out: MIC
Method: as §1, §2, §3, §4

[8] = system: Aspergillus niger; conditions: ATCC 16404; malt yeast agar
Method: as §1, §3
(§5) The inoculation with the fungi and yeast was accomplished as follows. Cultures of fungi and yeast were incubated for 7 days on malt yeast agar at 30° C. These cultures were used to prepare suspensions by the following procedure. A suspension of each organism was prepared by adding 10 mL of sterile saline and 10 microliters […] of Triton ×100 to the slant. The sterile saline/Triton ×100 solution was then agitated with a sterile swab to suspend the microorganism grown on the slant. Each resulting suspension was diluted into sterile saline (1 part suspension: 9 parts sterile saline). […] The petri plates were incubated at 30° C. and read after 48 hr for yeast and 72 hr for fungi.

[9] = system: Candida albicans; conditions: ATCC 10231; malt yeast agar
Method: as §1, §3, §5

[10] = system: Penicillium chrysogenum; conditions: ATCC 9480; malt yeast agar
Method: as §1, §3, §5

[11] = system: Trichoderma viride; conditions: ATCC 8678; malt yeast agar
Method: as §1, §3, §5

CC1(C)OC(=O)[C-]([I+]c2ccccc2[N+](=O)[O-])C(=O)O1 [Example 19, (2-Nitrophenyl)-iodonium 2,2-dimethyl-4,6-dioxo-1,3-dioxan-5-ylide]
MIC [1]: ≤ 1 µg/mL
MIC [2]: 10 µg/mL (≈ 25.6 µM)
MIC [3]: ≤ 1 µg/mL
MIC [4]: ≤ 1 µg/mL
MIC [5]: ≤ 1 µg/mL
MIC [6]: 10 µg/mL (≈ 25.6 µM)
MIC [7]: ≤ 1 µg/mL
MIC [8]: 250 µg/mL (≈ 639 µM)
MIC [9]: 100 µg/mL (≈ 256 µM)
MIC [10]: 100 µg/mL (≈ 256 µM)
MIC [11]: 250 µg/mL (≈ 639 µM)
